Measurements reported in PubChem BioAssay (NCI).
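How tested: cells in 96-well plates exposed to compound for 48 hours at five concentrations. TGI is the concentration that stops growth completely.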

What was measured:
Test in all cases: NCI-60 cell line screen, 48 h
RPMI-8226 leukemia = system: RPMI-8226 leukemia
ACHN renal = system: ACHN renal
KM20L2 colon = system: KM20L2 colon
U251 CNS = system: U251 CNS
XF 498 CNS = system: XF 498 CNS
DMS 114 small cell lung = system: DMS 114 small cell lung
RXF-631 renal = system: RXF-631 renal
SNB-78 CNS = system: SNB-78 CNS
NCI-H226 lung = system: NCI-H226 lung
A498 renal = system: A498 renal
SR leukemia = system: SR leukemia
MALME-3M melanoma = system: MALME-3M melanoma
LOX IMVI melanoma = system: LOX IMVI melanoma
KM12 colon = system: KM12 colon
IGROV1 ovarian = system: IGROV1 ovarian
SF-295 CNS = system: SF-295 CNS
HT29 colon = system: HT29 colon
HCT-15 colon = system: HCT-15 colon
NCI-H23 lung = system: NCI-H23 lung
M14 melanoma = system: M14 melanoma
DLD-1 colon = system: DLD-1 colon
UO-31 renal = system: UO-31 renal
LXFL 529 NSCLC = system: LXFL 529 NSCLC
SNB-19 CNS = system: SNB-19 CNS
OVCAR-3 ovarian = system: OVCAR-3 ovarian
TK-10 renal = system: TK-10 renal
SW-620 colon = system: SW-620 colon
K-562 leukemia = system: K-562 leukemia
UACC-257 melanoma = system: UACC-257 melanoma
COLO 205 colon = system: COLO 205 colon
OVCAR-4 ovarian = system: OVCAR-4 ovarian
SK-MEL-28 melanoma = system: SK-MEL-28 melanoma
NCI-H460 lung = system: NCI-H460 lung
CCRF-CEM leukemia = system: CCRF-CEM leukemia
OVCAR-5 ovarian = system: OVCAR-5 ovarian
NCI-H522 lung = system: NCI-H522 lung
SK-MEL-5 melanoma = system: SK-MEL-5 melanoma
EKVX NSCLC = system: EKVX NSCLC
A549 NSCLC = system: A549 NSCLC
HL-60(TB) leukemia = system: HL-60(TB) leukemia
786-0 renal = system: 786-0 renal
MOLT-4 leukemia = system: MOLT-4 leukemia
HOP-62 NSCLC = system: HOP-62 NSCLC
SF-539 CNS = system: SF-539 CNS
UACC-62 melanoma = system: UACC-62 melanoma
RXF 393 renal = system: RXF 393 renal
OVCAR-8 ovarian = system: OVCAR-8 ovarian
SN12C renal = system: SN12C renal
SF-268 CNS = system: SF-268 CNS
HCC-2998 colon = system: HCC-2998 colon
SK-OV-3 ovarian = system: SK-OV-3 ovarian
SNB-75 CNS = system: SNB-75 CNS
SK-MEL-2 melanoma = system: SK-MEL-2 melanoma
CAKI-1 renal = system: CAKI-1 renal
DMS 273 small cell lung = system: DMS 273 small cell lung
HOP-18 NSCLC = system: HOP-18 NSCLC
HOP-92 NSCLC = system: HOP-92 NSCLC
HCT-116 colon = system: HCT-116 colon

CC(C)(C)c1ccc(Oc2ccc(C#N)c(C#N)c2)c(C(C)(C)C)c1
TGI (RPMI-8226 leukemia): 43.1 µM
TGI (ACHN renal): > 100 µM
TGI (KM20L2 colon): > 100 µM
TGI (U251 CNS): > 100 µM
TGI (XF 498 CNS): 35.4 µM
TGI (DMS 114 small cell lung): > 52.2 µM
TGI (RXF-631 renal): > 100 µM
TGI (SNB-78 CNS): > 100 µM
TGI (NCI-H226 lung): > 100 µM
TGI (A498 renal): > 100 µM
TGI (SR leukemia): 40.3 µM
TGI (MALME-3M melanoma): > 100 µM
TGI (LOX IMVI melanoma): > 54.6 µM
TGI (KM12 colon): > 100 µM
TGI (IGROV1 ovarian): > 100 µM
TGI (SF-295 CNS): > 100 µM
TGI (HT29 colon): > 100 µM
TGI (HCT-15 colon): 31.3 µM
TGI (NCI-H23 lung): > 100 µM
TGI (M14 melanoma): > 100 µM
TGI (DLD-1 colon): > 100 µM
TGI (UO-31 renal): > 77.7 µM
TGI (LXFL 529 NSCLC): > 100 µM
TGI (SNB-19 CNS): > 100 µM
TGI (OVCAR-3 ovarian): > 100 µM
TGI (TK-10 renal): > 100 µM
TGI (SW-620 colon): > 100 µM
TGI (K-562 leukemia): > 64.9 µM
TGI (UACC-257 melanoma): > 100 µM
TGI (COLO 205 colon): > 59.1 µM
TGI (OVCAR-4 ovarian): > 100 µM
TGI (SK-MEL-28 melanoma): > 100 µM
TGI (NCI-H460 lung): > 71.1 µM
TGI (CCRF-CEM leukemia): > 66.2 µM
TGI (OVCAR-5 ovarian): > 100 µM
TGI (NCI-H522 lung): 60.6 µM
TGI (SK-MEL-5 melanoma): > 100 µM
TGI (EKVX NSCLC): > 100 µM
TGI (A549 NSCLC): > 100 µM
TGI (HL-60(TB) leukemia): 32.3 µM
TGI (786-0 renal): > 100 µM
TGI (MOLT-4 leukemia): 52.9 µM
TGI (HOP-62 NSCLC): > 100 µM
TGI (SF-539 CNS): > 100 µM
TGI (UACC-62 melanoma): > 100 µM
TGI (RXF 393 renal): > 95.7 µM
TGI (OVCAR-8 ovarian): > 100 µM
TGI (SN12C renal): > 100 µM
TGI (SF-268 CNS): > 100 µM
TGI (HCC-2998 colon): > 100 µM
TGI (SK-OV-3 ovarian): > 100 µM
TGI (SNB-75 CNS): > 100 µM
TGI (SK-MEL-2 melanoma): 97.8 µM
TGI (CAKI-1 renal): > 100 µM
TGI (DMS 273 small cell lung): 28.5 µM
TGI (HOP-18 NSCLC): > 100 µM
TGI (HOP-92 NSCLC): > 100 µM
TGI (HCT-116 colon): > 60.1 µM

COC1=C(OC)C(=O)c2cc(SC)c(=O)c(SC)cc2C1=O
TGI (RPMI-8226 leukemia): 40.2 µM
TGI (ACHN renal): 28.9 µM
TGI (KM20L2 colon): > 100 µM
TGI (U251 CNS): 38.7 µM
TGI (XF 498 CNS): 15.1 µM
TGI (DMS 114 small cell lung): 13.4 µM
TGI (NCI-H226 lung): 28.4 µM
TGI (A498 renal): 66.3 µM
TGI (SR leukemia): 22.7 µM
TGI (LOX IMVI melanoma): 16.6 µM
TGI (KM12 colon): > 100 µM
TGI (IGROV1 ovarian): > 100 µM
TGI (SF-295 CNS): 29.2 µM
TGI (HT29 colon): > 100 µM
TGI (HCT-15 colon): > 100 µM
TGI (NCI-H23 lung): 20.2 µM
TGI (M14 melanoma): 32.6 µM
TGI (DLD-1 colon): > 100 µM
TGI (UO-31 renal): 40.5 µM
TGI (LXFL 529 NSCLC): 29.5 µM
TGI (SNB-19 CNS): 60.7 µM
TGI (OVCAR-3 ovarian): 23.4 µM
TGI (TK-10 renal): > 100 µM
TGI (SW-620 colon): > 100 µM
TGI (K-562 leukemia): 33.3 µM
TGI (UACC-257 melanoma): 21.6 µM
TGI (COLO 205 colon): > 100 µM
TGI (OVCAR-4 ovarian): 24.8 µM
TGI (SK-MEL-28 melanoma): 26.7 µM
TGI (NCI-H460 lung): > 100 µM
TGI (CCRF-CEM leukemia): 4.93 µM
TGI (NCI-H522 lung): 34.9 µM
TGI (SK-MEL-5 melanoma): 25.9 µM
TGI (EKVX NSCLC): 48.9 µM
TGI (A549 NSCLC): 43.8 µM
TGI (HL-60(TB) leukemia): 3.97 µM
TGI (786-0 renal): 35.2 µM
TGI (MOLT-4 leukemia): 17.4 µM
TGI (HOP-62 NSCLC): 31.2 µM
TGI (SF-539 CNS): 24.8 µM
TGI (UACC-62 melanoma): 4.45 µM
TGI (RXF 393 renal): 16.8 µM
TGI (OVCAR-8 ovarian): 50.9 µM
TGI (SN12C renal): 28.7 µM
TGI (SF-268 CNS): 28.3 µM
TGI (HCC-2998 colon): > 100 µM
TGI (SK-OV-3 ovarian): > 100 µM
TGI (SNB-75 CNS): 28.1 µM
TGI (SK-MEL-2 melanoma): 15.5 µM
TGI (CAKI-1 renal): > 100 µM
TGI (DMS 273 small cell lung): > 100 µM
TGI (HOP-18 NSCLC): 82.2 µM
TGI (HOP-92 NSCLC): 48.4 µM
TGI (HCT-116 colon): 46.3 µM
